The values below come from ChEMBL document CHEMBL4184317, “Discovery of Tetrahydroquinoxalines as Bromodomain and Extra-Terminal Domain (BET) Inhibitors with Selectivity for the Second Bromodomain” (J Med Chem, 2018).

The solubility is how much of the substance goes into solution per volume. A higher solubility goes with much dissolved substance. What is called chromatographic logD is a lipophilicity value derived from retention on a column. Low values mean a more hydrophilic compound, high ones a more lipophilic compound. One may read the logD as lipophilicity at a set pH, counting ionised and neutral species. Low values mean lower lipophilicity, high ones higher lipophilicity.

The structures appear in SMILES notation. In brackets after ≈: the same amount, converted by molar mass.

The target of data set [1] is Bromodomain-containing protein 4 (Homo sapiens, UniProt O60885, Y390A).
Data set [2] is described as follows: Solubility of the compound in FaSSIF at pH 6.5 after 16 hrs by HPLC method. Format: physicochemical.
Data set [3] is described as follows: Permeability of the compound by PAMPA. Format: ADME. Particulars: read-out: permeability. On the technique in general: In PAMPA a lipid-coated filter parts donor from acceptor wells.
Data set [4] has as its target T1, Bromodomain-containing protein 2 (Homo sapiens, UniProt P25440). Briefly: Inhibition of human BRD2 BD1 after 30 mins by TR-FRET assay. Background: Time-resolved FRET reads energy transfer from a long-lived donor to a nearby acceptor.
The target in data set [5] is T2, Bromodomain testis-specific protein (Homo sapiens, UniProt Q58F21). Kind of data set: Inhibition of BRDT BD2 (unknown origin) after 30 mins by TR-FRET assay.
A short description of data set [6]: Solubility of the compound in pH 7.4 phosphate buffered saline by chemiluminescent nitrogen detection method. Format: physicochemical.
For data set [7], the target named is T3, Bromodomain-containing protein 3 (Homo sapiens, UniProt Q15059). Briefly: Inhibition of BRD3 BD2 (unknown origin) after 30 mins by TR-FRET assay.
Data set [8] deals with T1, Bromodomain-containing protein 2. Briefly: Inhibition of human BRD2 BD2 after 30 mins by TR-FRET assay.
The species named for data set [9] is Homo sapiens. Kind of data set: Selectivity ratio of IC50 for human BRD2 BD1 to IC50 for human BRD2 BD2.
A further data set in a line: physchem. To be noted: buffer, pH 7.4, logD.
For data set [10], the target named is Bromodomain-containing protein 4 (Homo sapiens, UniProt O60885, Y97A).
The test system of another data set is Blood. Briefly: Antiinflammatory activity in human whole blood assessed as inhibition of LPS-induced MCP1 release preincubated for 30 mins followed by LPS challenge measured after 24 hrs by immunoassay. Format: functional, tissue-based.
A further data set has as its system PBMC. Kind of data set: cells. To be noted: Homo sapiens, read-out: pIC50 (converted).
For data set [11], the species on record is Homo sapiens. Briefly: Selectivity ratio of IC50 for BRD3 BD1 (unknown origin) to IC50 for BRD3 BD2 (unknown origin).
In data set [12] the target is T3, Bromodomain-containing protein 3. Kind of data set: Inhibition of BRD3 BD1 (unknown origin) after 30 mins by TR-FRET assay.
Another data set concerns the target T4, Peregrin (Homo sapiens, UniProt P55201).
T4 sequence (P55201 whole entry): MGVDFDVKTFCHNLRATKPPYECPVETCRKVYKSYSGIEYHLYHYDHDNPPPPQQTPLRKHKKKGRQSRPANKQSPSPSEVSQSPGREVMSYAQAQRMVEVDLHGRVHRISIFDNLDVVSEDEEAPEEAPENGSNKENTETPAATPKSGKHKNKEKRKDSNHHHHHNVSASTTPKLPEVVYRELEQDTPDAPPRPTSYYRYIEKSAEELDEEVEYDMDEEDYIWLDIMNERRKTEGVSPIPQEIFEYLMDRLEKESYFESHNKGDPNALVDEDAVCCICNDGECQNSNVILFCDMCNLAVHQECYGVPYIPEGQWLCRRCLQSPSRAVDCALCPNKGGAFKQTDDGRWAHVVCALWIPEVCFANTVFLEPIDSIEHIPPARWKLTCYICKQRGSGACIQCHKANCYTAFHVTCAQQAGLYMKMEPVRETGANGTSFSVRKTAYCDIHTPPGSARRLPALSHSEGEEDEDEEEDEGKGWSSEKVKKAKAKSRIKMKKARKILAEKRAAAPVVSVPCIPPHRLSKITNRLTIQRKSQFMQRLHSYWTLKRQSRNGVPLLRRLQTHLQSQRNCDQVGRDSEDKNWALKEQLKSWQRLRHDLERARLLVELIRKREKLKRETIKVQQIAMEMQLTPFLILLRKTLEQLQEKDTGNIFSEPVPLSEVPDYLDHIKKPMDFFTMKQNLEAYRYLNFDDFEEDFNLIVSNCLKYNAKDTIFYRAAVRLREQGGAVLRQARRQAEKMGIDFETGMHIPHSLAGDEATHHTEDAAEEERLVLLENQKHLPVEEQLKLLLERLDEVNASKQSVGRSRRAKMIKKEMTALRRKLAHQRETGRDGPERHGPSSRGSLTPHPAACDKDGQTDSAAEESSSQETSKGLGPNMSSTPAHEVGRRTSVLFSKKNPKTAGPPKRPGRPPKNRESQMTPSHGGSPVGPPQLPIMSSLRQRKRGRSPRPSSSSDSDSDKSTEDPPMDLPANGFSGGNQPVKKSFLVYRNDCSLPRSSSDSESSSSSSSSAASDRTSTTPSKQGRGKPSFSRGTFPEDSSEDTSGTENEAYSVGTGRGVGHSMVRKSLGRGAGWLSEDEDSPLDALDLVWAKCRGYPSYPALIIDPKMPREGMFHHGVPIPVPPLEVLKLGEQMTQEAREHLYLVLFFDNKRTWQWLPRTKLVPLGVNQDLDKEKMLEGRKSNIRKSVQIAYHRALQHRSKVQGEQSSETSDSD
Briefly: Displacement of Alexa 647 ligand from 6H-Flag-Tev-BRPF1 (622 to 738 residues) (unknown origin) expressed in Escherichia coli BL21 (DE3) cells after 30 mins by TR-FRET assay.

The species named for data set [13] is Homo sapiens. Briefly: Selectivity ratio of IC50 for BRDT BD1 (unknown origin) to IC50 for BRDT BD2 (unknown origin).
Data set [14] has as its target T2, Bromodomain testis-specific protein. Kind of data set: Inhibition of BRDT BD1 (unknown origin) after 30 mins by TR-FRET assay.
The conditions of data set [15]: buffer, pH 7.4.
Description: (§1) Chromatographic hydrophobicity index, log D of the compound at pH 7.4 by HPLC method

T3 sequence (Q15059 whole entry): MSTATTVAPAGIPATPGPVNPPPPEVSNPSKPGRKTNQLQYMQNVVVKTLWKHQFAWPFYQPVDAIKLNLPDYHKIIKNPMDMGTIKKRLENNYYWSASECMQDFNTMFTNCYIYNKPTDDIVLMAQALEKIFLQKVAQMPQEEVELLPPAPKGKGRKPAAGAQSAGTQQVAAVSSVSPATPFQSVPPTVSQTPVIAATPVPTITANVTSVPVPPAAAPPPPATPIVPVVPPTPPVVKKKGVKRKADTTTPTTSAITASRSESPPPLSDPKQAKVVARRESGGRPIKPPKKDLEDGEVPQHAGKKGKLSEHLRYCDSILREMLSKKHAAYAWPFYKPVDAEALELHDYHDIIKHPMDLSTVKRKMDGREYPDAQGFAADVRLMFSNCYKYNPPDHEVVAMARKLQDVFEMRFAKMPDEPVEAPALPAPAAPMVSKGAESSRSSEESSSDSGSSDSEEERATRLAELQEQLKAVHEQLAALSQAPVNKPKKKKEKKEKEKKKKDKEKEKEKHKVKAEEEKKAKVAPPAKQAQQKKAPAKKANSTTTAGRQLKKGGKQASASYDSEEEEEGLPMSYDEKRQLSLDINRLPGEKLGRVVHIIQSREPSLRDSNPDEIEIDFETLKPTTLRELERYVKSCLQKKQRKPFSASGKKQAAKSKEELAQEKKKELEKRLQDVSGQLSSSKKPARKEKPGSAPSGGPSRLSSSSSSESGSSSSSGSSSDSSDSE
T1 sequence (P25440 whole entry): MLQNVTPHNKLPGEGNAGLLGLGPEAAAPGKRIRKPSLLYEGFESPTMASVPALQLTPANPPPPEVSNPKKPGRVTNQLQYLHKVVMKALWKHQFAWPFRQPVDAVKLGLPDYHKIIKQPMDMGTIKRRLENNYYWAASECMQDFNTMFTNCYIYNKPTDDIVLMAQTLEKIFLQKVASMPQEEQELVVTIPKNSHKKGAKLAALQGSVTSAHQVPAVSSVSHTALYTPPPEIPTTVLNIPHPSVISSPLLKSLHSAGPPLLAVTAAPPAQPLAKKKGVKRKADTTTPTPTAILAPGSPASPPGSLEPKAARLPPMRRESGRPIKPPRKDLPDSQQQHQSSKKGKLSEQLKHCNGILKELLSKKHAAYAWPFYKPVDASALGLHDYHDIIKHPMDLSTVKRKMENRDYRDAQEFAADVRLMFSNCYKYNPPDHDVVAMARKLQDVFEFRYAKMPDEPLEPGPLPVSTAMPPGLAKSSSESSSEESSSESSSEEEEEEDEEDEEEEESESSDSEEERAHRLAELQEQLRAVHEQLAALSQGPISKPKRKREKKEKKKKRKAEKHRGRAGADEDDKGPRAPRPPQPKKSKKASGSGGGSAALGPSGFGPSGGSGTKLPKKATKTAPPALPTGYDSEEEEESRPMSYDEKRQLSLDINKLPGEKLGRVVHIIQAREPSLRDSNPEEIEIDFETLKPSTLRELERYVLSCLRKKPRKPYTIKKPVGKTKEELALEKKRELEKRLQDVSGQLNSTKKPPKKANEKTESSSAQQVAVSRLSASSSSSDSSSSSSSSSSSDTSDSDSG
Description for PBMC: Antiinflammatory activity in human PBMC assessed as inhibition of LPS-induced MCP1 release preincubated for 30 mins followed by LPS challenge measured after 24 hrs by immunoassay
Description for physchem: as §1

On to `CC(=O)N1c2ccc(-c3cnc(C(N)=O)nc3)cc2N(Cc2ccccc2CO)C[C@@H]1C1CC1`, for which the IC50 in data set [1] is 2000 nM; in data set [4], 1580 nM; in data set [5] it was 100 nM; in [7], 31.6 nM; in data set [8], 100 nM; in data set [10], 50.1 nM. Besides, the IC50 with Blood is 398 nM; in the data set with PBMC, 63.1 nM; in data set [12], 794 nM; at Peregrin it was greater than 100000 nM; in data set [14] it was 501 nM. This compound also came in with a solubility at 16 h in [2] of 18 µg/mL (≈ 39.3 µM). Also, the Papp in data set [3] was found to be 13.5 ×10⁻⁶ cm/s. In [6], the solubility is 87 µM (≈ 39.8 µg/mL). For the same compound, the Ratio IC50 was 16 in the data set filed under Homo sapiens [9], 25 in the data set listed under Homo sapiens [11] and 5 in the data set filed under Homo sapiens [13]. The compound also showed a chromatographic logD in the data set “physchem” of 3.

With `CC(=O)N1c2ccccc2N(Cc2ccccc2)CC1C1CC1` (configuration not stated), the IC50 in data set [1] is 20000 nM; in data set [10] it was 631 nM; in the data set on PBMC, 3160 nM. The chromatographic logD in the data set “physchem” was 6.7.

Turning to `CC(=O)N1c2ccccc2N(Cc2ccccc2CO)CC1C1CC1` (single isomer, unassigned), the IC50 is 15800 nM in data set [1], 200 nM in data set [10] and 1000 nM in the data set with PBMC. The pH-dependent lipophilicity (logD) in [15] was 4.7.

With `CC(=O)N1c2ccccc2N(Cc2ccccc2C(=O)O)CC1C1CC1` (configuration not stated), the IC50 in [1] is greater than 50100 nM; in data set [10] it was 794 nM; in the data set with PBMC, 2510 nM. The chromatographic logD in “physchem” is 2.2.

Turning to `COc1ccccc1CN1CC(C2CC2)N(C(C)=O)c2ccccc21` (configuration not stated), the IC50 in data set [1] was 15800 nM; in [10], 398 nM; in the data set on PBMC, 2000 nM. For the same compound, the chromatographic logD in the data set “physchem” was found to be 6.9.

For the compound `CC(=O)N1c2ccccc2N(Cc2ccc(Cl)cc2C(=O)O)CC1C1CC1` (configuration not stated), the IC50 in data set [1] is 39800 nM; in data set [10] it was 1260 nM; in the data set with PBMC it was 12600 nM. This compound showed a chromatographic logD in “physchem” of 2.9.

Regarding `CC(=O)N1c2ccccc2N(Cc2ccccc2CC(=O)O)CC1C1CC1` (configuration not stated), the IC50 in data set [1] was greater than 50100 nM; in data set [10], 1000 nM; in the data set with PBMC it was 1260 nM. In addition, the chromatographic logD in the data set “physchem” was determined as 2.4.
